Test: clinical
Conditions: in vivo, iv
Source text: The drug-drug interaction study was a phase 1, single-center, multiarm, open-label, randomized, three-period crossover study. The objective was to evaluate the DDI potential and the PK of SPR741 coadministered with each of three partner antibiotics as well as the DDI and PK effects of three partner antibiotics administered alone and with SPR741. The study comprised a screening phase (day −28 to day −2), three treatment arms (day 1 to day 8 for each arm), and an end-of-study follow-up (day 9). Each subject participated in screening, one treatment arm, and the end-of-study follow-up. The maximum duration of participation for each subject was approximately 37 days. Subjects remained in the clinical unit from the day before dosing (day −1) to 24 h after the third and last dose period (day 8).
The DDI study consisted of three treatment arms with three dosing periods in each arm (days 1, 4, and 7). In random sequence, subjects received a single dose of study treatments with a 2-day washout period between each assigned treatment. In treatment arm 1, subjects received 400 mg of SPR741 i.v. over 1 h, 400 mg of SPR741 i.v. over 1 h plus 1.0 g of ceftazidime i.v. over 1 h, and 1.0 g of ceftazidime i.v. over 1 h. In treatment arm 2, subjects received 400 mg of SPR741 i.v. over 1 h, 400 mg of SPR741 i.v. over 1 h plus 4.5 g of piperacillin-tazobactam i.v. over 1 h, and 4.5 g of piperacillin-tazobactam i.v. over 1 h.
For both studies, maximum plasma concentration (Cmax), area under the concentration-time curve from time zero to the last measurable time point (AUC0-t), area under the concentration-time curve from time zero to infinity (AUC0-inf), time to maximum concentration (Tmax), terminal elimination rate constant (kel), terminal half-life (t1/2), terminal clearance (CL), and volume of distribution (V) were determined. PK parameters were determined using WinNonlin Phoenix, version 6.4.
For the SAD phase, blood samples were obtained predose (within 10 min), at 30 min following the start of infusion, at the end of infusion, and at 75, 90, 105, 120, and 150 min and 3, 4, 5, 6, 8, 10, 12, and 24 h following the start of infusion. For the MAD phase, blood was obtained predose (within 10 min), at 30 min following the start of infusion, at the end of infusion, and at 90 and 150 min and 3, 4, 5, 6, and 8 h following the start of infusion (day 1, first dose; day 14, last dose). Five additional blood samples were obtained at 10, 12, 24, 36, and 48 h following the start of infusion of the last dose (morning of day 14). For the DDI study, blood samples for determining plasma concentrations of SPR741 and each partner antibiotic were obtained predose (within −10 min), at 30 min, and at 1 h, 1 h 15 min, 1 h 30 min, 1 h 45 min, 2, 4, 8, 12, and 24 h postdose for each dose period. Plasma samples for drug concentration measurements were analyzed using a validated high-pressure liquid chromatography tandem mass spectrometry (HPLC-MS/MS) method. In brief, samples were spiked with a stable isotope-labeled internal standard and then extracted by protein precipitation before injection onto the HPLC-MS/MS system. Unique transitions were monitored for all test articles and internal standards. Plasma concentrations below the limit of quantitation were reported as 0.
In the SAD/MAD study, geometric means were calculated for AUC and Cmax values. Analyses using linear models were performed to assess dose proportionality (both single dose and multiple dose), time dependence, accumulation, and attainment of steady state (multiple dose). Dose proportionality was assessed using linear models for the SAD and MAD cohorts separately. […] Point estimates and 90% confidence intervals (CIs), using the residual mean square error obtained from the ANOVA, were constructed for the comparisons between treatments. The point and CI estimates were back-transformed to give estimates of the ratios (percentages) of the geometric LSMs and corresponding 90% CIs.
In the case of `CC(C)(O/N=C(\C(=O)N[C@@H]1C(=O)N2C(C(=O)[O-])=C(C[n+]3ccccc3)CS[C@H]12)c1csc(N)n1)C(=O)O` [Ceftazidime, ceftazidime], the “AUC0-inf, geometric LSM, reference treatment” value (“AUC0-inf, geometric LSM” for short) is reported as 163,000 h·ng/ml, the AUC0-t is reported as 162,000 ± 22,400 (13.8) ng·h/ml and the “AUC0-τ, geometric LSM, reference treatment” value (from here on “AUC0-τ, geometric LSM”) is reported as 163,000 h·ng/ml. The AUC(0-inf) was 163,000 ± 22,500 (13.8) ng·h/ml, the CL was 6.3 ± 0.8 (12.8) liters/h and the Cmax was 70,200 ± 5,790 (8.2) ng/ml. For the same compound, the “Cmax, geometric LSM, reference treatment” value was 70,300 ng/ml, the Tmax was 1.0 ± 0 (0) h and the V was 24.0 ± 3.1 (12.8) liters. For the same compound, the kel was 0.26 ± 0.01 (3.1) 1/h and the t1/2 was 2.7 ± 0.1 (3.1) h.
In the case of `C[C@]1(Cn2ccnn2)[C@H](C(=O)O)N2C(=O)C[C@H]2S1(=O)=O` [Tazobactam, tazobactam], the “AUC0-inf, geometric LSM” value is reported as 30,200 h·ng/ml, the AUC0-t is reported as 32,000 ± 5,060 (15.8) ng·h/ml and the “AUC0-τ, geometric LSM” value is reported as 30,200 h·ng/ml. For the same compound, the AUC(0-inf) was 32,000 ± 5,060 (15.8) ng·h/ml, the CL was 16.1 ± 3.0 (18.4) liters/h and the Cmax was 18,500 ± 2,610 (14.1) ng/ml. The “Cmax, geometric LSM, reference treatment” value was 17,600 ng/ml, the Tmax was 1.0 ± 0 (1.2) h and the V was 41.6 ± 6.5 (15.6) liters. For the same compound, the kel was 0.40 ± 0.12 (30.8) 1/h and the t1/2 was 1.9 ± 0.4 (22.4) h.
With `CCN1CCN(C(=O)N[C@@H](C(=O)N[C@@H]2C(=O)N3[C@@H]2SC(C)(C)[C@@H]3C(=O)O)c2ccccc2)C(=O)C1=O` [Piperacillin, piperacillin] the “AUC0-inf, geometric LSM” value was 228,000 h·ng/ml, the AUC0-t was 240,000 ± 33,000 (13.7) ng·h/ml and the “AUC0-τ, geometric LSM” value was 228,000 h·ng/ml. The AUC(0-inf) was 240,000 ± 33,000 (13.7) ng·h/ml, the CL was 19.1 ± 3.0 (15.8) liters/h and the Cmax was 154,000 ± 23,500 (15.2) ng/ml. The “Cmax, geometric LSM, reference treatment” value was 145,000 ng/ml, the Tmax was 1.0 ± 0 (1.2) h and the V was 60.7 ± 10.6 (17.4) liters. For the same compound, the kel was 0.32 ± 0.02 (5.6) 1/h and the t1/2 was 2.2 ± 0.1 (5.7) h.

From article PMC6709486, “Safety, Tolerability, Pharmacokinetics, and Drug Interaction Potential of SPR741, an Intravenous Potentiator, after Single and Multiple Ascending Doses and When Combined with β-Lactam Antibiotics in Healthy Subjects” (Antimicrobial Agents and Chemotherapy, 2019)
